Reference: paper PMC10053369, “Recombinant Analogs of Sea Anemone Kunitz-Type Peptides Influence P2X7 Receptor Activity in Neuro-2a Cells” (Marine Drugs, 2023)

Key:
[1] = system: Neuro-2a cells; experiment: Cytoprotection against ATP-induced cell death (MTT assay); type: cell-based, mouse
Method: (§1) Neuro-2a neuroblastoma cells (ATCC® CCL-131™) were obtained from American Type Culture Collection (Manassas, VA, USA). The cells were cultivated in DMEM medium (BioloT, St. Petersburg, Russia) supplemented with 10% of fetal bovine serum (BioloT, St. Petersburg, Russia) and 1% penicillin/streptomycin (BioloT, St. Petersburg, Russia) at 37 °C and 5% CO2. Initially, cells were incubated in cultural flasks until sub-confluent (~80%). For testing, Neuro-2a cells were seeded in 96-well plates and experiments were started after 24 h.
The cytoprotective effect of peptides was assessed in Neuro-2a cells using the MTT assay. In brief, an aliquot (180μL) of cell suspension with a nominal cell density of 3 × 10^4 cells/well was dispensed into 96-well plates. The cells were incubated for 24 h in a humidified atmosphere containing 5% CO2 to allow cell attachment. At the end of the preincubation period, ATP (Sigma-Aldrich, St. Louis, MO, USA) was added to the cells at a concentration of 4 mM. Studied peptides were added to the cells at concentrations of 0.1, 1.0 or 10.0 μM for 1h prior to the addition of ATP. After incubation for 48 h at 37 °C cell viability was detected using the MTT as described previously. The standard P2X7 inhibitor, A438079 (Sigma-Aldrich, St. Louis, MO, USA), at a concentration of 10 μM was used as a positive control.
(§2) All data were obtained in three independent replicates and calculated values were expressed as mean ± standard error of the mean (SEM). The Student’s t-test was performed using SigmaPlot 14.0 (Systat Software Inc., San Jose, CA, USA) to determine statistical significance.

[2] = system: P2X7 in Neuro-2a cells; experiment: ATP-induced YO-PRO-1 uptake (P2X7 pore formation); type: cell-based, mouse
Method: as §1
Neuro-2a cells were seeded in 96 well plates at a density of 4 × 10^4 cells/well and incubated in DMEM for 24 h, 37 °C, 5% CO2. Then the cells were washed once with HBSS and filled with 180 μL of the same buffer. YO-PRO-1 (Sigma-Aldrich, St. Louis, MO, USA, 5 μM final concentration) was loaded into the wells, the cells were incubated for 15 min at 37 °C. Further, the studied peptides were added to the cells at concentrations of 10, 1, 0.1 and 0.01 μM and incubated for 10 min at 37 °C. After that ATP (4 mM final concentration) was added and the plates were incubated for an additional 10 min. The standard P2X7R inhibitor, A438079 (Sigma-Aldrich, St. Louis, MO, USA), was used as inhibitory control. Then the cells were washed three times with the buffer solution and fluorescence intensity was measured with PHERAstar FS plate reader (BMG, LABTECH, Ortenberg, Germany) at λex = 485 nm and λem= 520 nm in the “End Point” mode. The effectiveness of compounds was evaluated relative to control without ATP.
as §2

[3] = intrathecal; hind paw ipsilateral to the nerve injury; cited from earlier work
Excerpt: (§3) Activated P2X7 has also been reported to alter reactive oxygen species (ROS) in microglia/macrophages as was shown, for example, in primary rat microglial cells. In cultured neurons of the dorsal horn of the spinal ...

[4] = system: cultured neurons of the dorsal horn of the spinal cord; settings: cited from earlier work
Excerpt: as §3

[5] = system: pancreatic ductal adenocarcinoma cells; settings: ref [31]; cited from earlier work
[6] = system: spontaneously hypertensive rats; settings: intracerebroventricular; ref [8]; cited from earlier work
Excerpt: as §3

[7] = system: P2X7 in Neuro-2a cells; experiment: ATP-induced Ca2+ influx (Fluo-8 AM); type: cell-based, mouse; settings: for reduction of calcium level: 30 min pre-incubation, 1 mM ATP
Method: as §1
Neuro-2a cells were seeded in 96-well plates at a density of 4 × 10^4 cells/well and incubated in DMEM for 24 h at 37 °C, 5% CO2. Then the cells were washed twice with culture medium and loaded with 5 μM Fluo-8 AM (Abcam, Cambridge, UK) dye and 1 μM Pluronic® F-127 (Sigma-Aldrich, St. Louis, MO, USA), and incubated for 40 min at 37 °C in HBSS: 140 mM NaCl, 5 mM KCl, 0.8 mM MgCl2, 2 mM CaCl2, 10 mM glucose, 10 mM HEPES, pH 7.4. Then the cells were washed two times with the same solution but without the fluorescent dye and treated with the studied peptides for 30 min at RT in the dark. In some experiments Ca^2+-free medium was used: 140 mM NaCl, 5 mM KCl, 0.8 mM MgCl2, 10 mM glucose, 10 mM HEPES, 5 mM EGTA, pH 7.4. ATP (1 mM final concentration) was added using a microinjector (20 μL/well) 10 s later the baseline recording and the readings were taken up to 50 s in 1 s intervals. The standard P2X7 inhibitor, A438079 (Sigma-Aldrich, St. Louis, MO, USA), was used as inhibitory control. Ionomycin (Sigma-Aldrich, St. Louis, MO, USA) and BHQ were used to generate a generic calcium signal in cells. 2,5,-di(t-butyl) hydroquinone (BHQ) was synthesized and kindly provided by Dr. Polonik S.N. (PIBOC FEBRAS). Fluo-8 was excited at 485 nm, and the emission at 520 nm was measured with a PHERAstar®FS plate reader (BMG LABTECH, Ortenberg, Germany). The data were processed by MARS Data Analysis v. 3.01R2 (BMG Labtech, Ortenberg, Germany). Mean values and standard error of peak height calcium were calculated.
as §2

[8] = ref [14],[17],[18],[21],[38],[39],[40], cited from earlier work
Excerpt: (§4) The studied peptides are analogs of sea anemone Kunitz-type peptides and attract our attention due to their wide spectrum of biological activity and ability to interact with important molecular targets.

[9] = biological target: TRPV1 receptor; settings: modulator of TRPV1, depends on nature and strength of activation stimuli; ref [14],[17],[18],[21],[38],[39],[40]; cited from earlier work
Excerpt: as §4

Clc1cccc(-c2nnnn2Cc2cccnc2)c1Cl [A438079, reference compound]
increase in cell viability compared with ATP alone ([1]; pre-incubation with 10 μM A438079, then 4 mM ATP, 48 h, mean ± SE, n = 3): 18.2 ± 2.8%
inhibition of YO-PRO-1 dye penetration vs ATP alone ([2]; 10 μM A438079 pre-incubation, 4 mM ATP, mean ± SE, n = 3): up to 32%
ATP-induced uptake of YO-PRO-1 ([2]; 0.01–10 μM peptides or 10 μM A438079, 10 min pre-incubation, 4 mM ATP): attenuated dye accumulation
mechanical hypersensitivity [3]: suppressed the development of mechanical hypersensitivity
ATP or Bz-ATP-induced ROS production [4]: eliminated
ATP-induced pore formation and cell death [5]: very modest effects on ATP-induced pore formation and cell death

Cc1nc(N=Nc2ccc(S(=O)(=O)O)cc2S(=O)(=O)O)c(COP(=O)(O)O)c(C=O)c1O [PPADS]
infarct volume and number of irreversibly damaged cells [6]: reduced infarct volume and the number of irreversibly damaged cells

APHC3: recombinant Kunitz-type peptide from H. magnifica (=H. crispa), UniProtKB C0HJF3 (GSICLEPKVVGPCTAYFPRFYFNSETGKCTPFIYGGCEGNGNNFETLRACRGICRA; left off: thioredoxin, end not stated, cleaved)
protection from ATP-induced death ([1]; long-time application of ATP (4 mM, 48 h)): partially protected neuroblastoma cells from ATP-induced death
reduction of calcium level ([7]; 0.1 μM peptide, mean ± SE, n = 3): 53.2 ± 24.95%
reduction of calcium level ([7]; 0.1–10 μM peptide): significantly reduced the calcium level
effect on Ca2+ influx (summary in discussion) ([7]; short-term effect): a significant effect on Ca^2+ influx into cells
entry of YO-PRO-1 into cells (summary in discussion) ([2]; short-term effect): regulating the entry of low molecular weight fluorescent dye YO-PRO-1 into cells
activity in models of inflammatory diseases ([8]; ex vivo and in vivo): potent activity
anti-inflammatory and analgesic activity [8]: significant anti-inflammatory and analgesic activity
EC50 [9]: ~0.018 µM
